These are literature values, as cited in patent EP0535567A1, “Liposomes containing volatile inhalation anaesthetics, their preparation and their use” (B. Braun Melsungen AG, priority 1991, dated 1993).

The conditions of this data set: fraction of the anaesthetic that is metabolised.

Regarding `FC(F)OC(Cl)C(F)(F)F` (stereo not shown) [Isofluran, 1-Chlor-2,2,2-trifluorethyl(difluormethyl)ether], the verstoffwechselt was under 2%.
